Measurements reported in patent publication US20210255193A1, “LYSINE REACTIVE PROBES AND USES THEREOF” (The Scripps Research Institute, priority 2017, published 2021).
Values belong to the compound of their own block, whether it stands above or below them.

Tests used:
[1] = target: T1, EIF5A2 Eukaryotic translation initiation factor 5A-2 (Homo sapiens, UniProt Q9GZV4); assay: competitive isoTOP-ABPP; assay type: binding; settings: 50 uM, in vitro
T1 construct: isoTOP-ABPP experiments performed in cell lysates (in vitro); endogenous in cells; host or cells: soluble proteome of human cancer cell lines (MDA-MB-231; Ramos and Jurkat also prepared)
T1 sequence (Q9GZV4 whole entry): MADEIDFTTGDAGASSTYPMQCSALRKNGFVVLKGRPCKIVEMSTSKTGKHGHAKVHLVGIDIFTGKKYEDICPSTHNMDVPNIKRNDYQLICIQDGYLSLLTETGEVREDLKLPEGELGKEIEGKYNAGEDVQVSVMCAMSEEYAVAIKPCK
Method in brief: (§1)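 Cell lysate treated in vitro with fragments (50 μM activated esters, 100 μM guanidinylating agents) or DMSO, labelled 1 h at ambient temperature with 0.1 mM STP-alkyne, CuAAC-tagged with light/heavy TEV tags, analysed by MS. R = DMSO/compound MS1 peak-area ratio; lysines with R≥4 called liganded.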

[2] = target: T2, CCDC173 Coiled-coil domain-containing protein 173 (Homo sapiens, UniProt Q0VFZ6); assay: competitive isoTOP-ABPP; assay type: binding; settings: 50 uM, in vitro
T2 construct: isoTOP-ABPP experiments performed in cell lysates (in vitro); endogenous in cells; host or cells: soluble proteome of human cancer cell lines (MDA-MB-231, Ramos, Jurkat)
T2 sequence (Q0VFZ6 whole entry, the tested form may be a part): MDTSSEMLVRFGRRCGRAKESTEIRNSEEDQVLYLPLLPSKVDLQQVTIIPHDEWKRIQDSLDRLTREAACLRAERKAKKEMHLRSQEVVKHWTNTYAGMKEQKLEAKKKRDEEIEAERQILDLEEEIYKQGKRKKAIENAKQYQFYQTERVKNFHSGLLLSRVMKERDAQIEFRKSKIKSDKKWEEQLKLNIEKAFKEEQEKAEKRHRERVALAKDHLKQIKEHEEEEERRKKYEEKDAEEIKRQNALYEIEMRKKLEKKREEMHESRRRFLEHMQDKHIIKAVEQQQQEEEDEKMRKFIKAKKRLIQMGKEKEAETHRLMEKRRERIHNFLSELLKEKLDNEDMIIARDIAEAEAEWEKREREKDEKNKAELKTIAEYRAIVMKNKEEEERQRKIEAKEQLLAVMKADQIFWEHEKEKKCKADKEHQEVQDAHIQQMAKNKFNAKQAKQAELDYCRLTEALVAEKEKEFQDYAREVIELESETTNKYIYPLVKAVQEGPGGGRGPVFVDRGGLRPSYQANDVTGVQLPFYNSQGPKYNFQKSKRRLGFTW
Method in brief: as §1

[3] = target: T3, NUDT2 (Homo sapiens, UniProt P50583); assay: NUDT2 functional assay; assay type: biochemical; settings: substrate assay
T3 construct: expressed in transfected cells; host or cells: HEK 293T, transient transfection, soluble lysate; synthesized gene (IDT)
T3 sequence (P50583 whole entry): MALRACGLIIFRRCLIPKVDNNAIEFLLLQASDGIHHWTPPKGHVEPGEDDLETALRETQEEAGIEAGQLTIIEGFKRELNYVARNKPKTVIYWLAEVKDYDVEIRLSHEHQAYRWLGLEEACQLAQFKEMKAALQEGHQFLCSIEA
Procedure: NUDT2 functional assay. NUDT2 activity was measured with a published assay using a fluorogenic substrate. For inhibitor experiments, 50 μl of soluble proteome (initial total protein concentration: 1 mg ml^−1) from HEK 293T cells expressing NUDT2 (WT or K89R mutant) or mock transfected cells (empty vector; negative control) were incubated with 1 μl 50× of the compound in DMSO or DMSO for the positive or negative control (lysate transfected with empty vector) for 1 h at room temperature. Lysates were diluted 4000× with dilution buffer and 64 μl were added into a black 384 well plate. 16 μl of fluorogenic substrate (5 μM) were added to start the reaction. The fluorescence intensity with excitation at 530 nm and emission at 563 nm was measured every minute for 30 min.
Calculation of relative activity or percent inhibition. For PNPO, PFKP, NUDT2 and G6PD, the slope of the linear regression of the linear portion of the absorbance or fluorescence over time was used as measure their activity. Apparent activity was calculated relative to the WT. Percent inhibition was calculated relative to the positive and negative control and used to calculate IC50 values by nonlinear regression analysis from a dose-response curve generated using GraphPad Prism 7.

[4] = target: T4, IDH3B Isocitrate dehydrogenase (Homo sapiens, UniProt O43837); assay: competitive isoTOP-ABPP; assay type: binding
T4 construct: isoTOP-ABPP experiments performed in cell lysates (in vitro); endogenous in cells; host or cells: MDA-MB-231 soluble lysate
T4 sequence (O43837 35-385): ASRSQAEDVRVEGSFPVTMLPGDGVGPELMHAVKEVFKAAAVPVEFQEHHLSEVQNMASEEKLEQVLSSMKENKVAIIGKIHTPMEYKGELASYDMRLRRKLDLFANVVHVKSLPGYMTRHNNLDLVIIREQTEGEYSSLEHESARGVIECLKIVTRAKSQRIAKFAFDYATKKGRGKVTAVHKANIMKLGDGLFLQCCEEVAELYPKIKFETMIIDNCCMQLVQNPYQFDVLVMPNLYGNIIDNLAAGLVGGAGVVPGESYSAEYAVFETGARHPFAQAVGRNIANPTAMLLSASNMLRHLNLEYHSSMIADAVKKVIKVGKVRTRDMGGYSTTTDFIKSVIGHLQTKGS
Method in brief: as §1

[5] = target: T5, ACIN1 Apoptotic chromatin condensation inducer in the nucleus (Homo sapiens, UniProt Q9UKV3); assay: competitive isoTOP-ABPP; assay type: binding; settings: 50 uM_231_sol_in vitro
T5 construct: endogenous in cells; host or cells: MDA-MB-231 lysate
T5 sequence (Q9UKV3 whole entry): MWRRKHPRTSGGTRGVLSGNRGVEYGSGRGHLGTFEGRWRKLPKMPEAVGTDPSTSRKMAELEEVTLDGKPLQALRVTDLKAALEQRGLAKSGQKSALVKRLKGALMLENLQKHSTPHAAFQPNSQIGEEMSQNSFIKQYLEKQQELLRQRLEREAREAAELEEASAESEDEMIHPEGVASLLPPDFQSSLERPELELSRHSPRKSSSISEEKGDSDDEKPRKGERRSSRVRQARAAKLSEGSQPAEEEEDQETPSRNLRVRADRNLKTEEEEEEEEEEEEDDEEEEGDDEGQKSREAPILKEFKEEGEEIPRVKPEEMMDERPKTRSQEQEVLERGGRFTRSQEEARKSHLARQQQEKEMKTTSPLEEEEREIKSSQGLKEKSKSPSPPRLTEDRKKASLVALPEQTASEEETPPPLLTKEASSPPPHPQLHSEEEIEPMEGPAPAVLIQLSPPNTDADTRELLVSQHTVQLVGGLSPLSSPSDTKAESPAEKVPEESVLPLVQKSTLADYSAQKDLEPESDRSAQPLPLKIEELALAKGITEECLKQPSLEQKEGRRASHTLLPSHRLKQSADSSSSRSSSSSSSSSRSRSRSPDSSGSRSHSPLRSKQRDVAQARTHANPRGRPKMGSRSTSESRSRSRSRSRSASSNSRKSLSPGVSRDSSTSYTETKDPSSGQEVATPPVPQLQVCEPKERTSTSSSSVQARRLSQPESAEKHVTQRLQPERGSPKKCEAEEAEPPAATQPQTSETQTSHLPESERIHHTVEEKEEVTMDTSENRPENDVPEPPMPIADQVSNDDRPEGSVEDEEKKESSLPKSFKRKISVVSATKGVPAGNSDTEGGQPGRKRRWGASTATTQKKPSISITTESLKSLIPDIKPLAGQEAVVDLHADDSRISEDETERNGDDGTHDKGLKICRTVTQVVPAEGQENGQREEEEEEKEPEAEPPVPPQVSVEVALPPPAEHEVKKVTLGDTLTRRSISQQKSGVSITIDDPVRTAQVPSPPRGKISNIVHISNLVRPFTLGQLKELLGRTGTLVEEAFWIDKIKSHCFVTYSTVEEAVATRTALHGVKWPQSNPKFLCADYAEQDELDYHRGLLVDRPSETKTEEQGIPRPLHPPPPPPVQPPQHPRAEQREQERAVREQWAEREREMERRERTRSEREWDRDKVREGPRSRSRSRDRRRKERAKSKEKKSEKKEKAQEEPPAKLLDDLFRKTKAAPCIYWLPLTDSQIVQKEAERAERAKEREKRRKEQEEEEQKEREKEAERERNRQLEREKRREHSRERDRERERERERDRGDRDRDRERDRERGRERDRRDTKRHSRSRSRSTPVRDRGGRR
Method in brief: as §1

[6] = target: T6, CCNA2 Cyclin-A2 (Homo sapiens, UniProt P20248); assay: competitive isoTOP-ABPP; assay type: binding; settings: 50 uM, in vitro
T6 construct: isoTOP-ABPP experiments performed in cell lysates (in vitro); endogenous in cells; host or cells: soluble proteome of human cancer cell lines (MDA-MB-231; Ramos and Jurkat also prepared)
T6 sequence (P20248 whole entry): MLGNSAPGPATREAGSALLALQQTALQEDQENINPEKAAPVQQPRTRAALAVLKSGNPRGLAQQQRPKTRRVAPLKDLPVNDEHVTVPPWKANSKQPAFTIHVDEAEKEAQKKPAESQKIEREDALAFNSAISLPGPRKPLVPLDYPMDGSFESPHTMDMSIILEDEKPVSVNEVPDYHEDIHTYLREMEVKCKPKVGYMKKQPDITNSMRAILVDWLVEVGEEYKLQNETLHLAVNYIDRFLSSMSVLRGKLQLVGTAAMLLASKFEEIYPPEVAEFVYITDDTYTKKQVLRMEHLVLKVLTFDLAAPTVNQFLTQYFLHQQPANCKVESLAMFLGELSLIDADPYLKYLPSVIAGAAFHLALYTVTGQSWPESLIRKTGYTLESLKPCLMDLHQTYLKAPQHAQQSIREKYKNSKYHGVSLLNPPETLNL
Method in brief: as §1

R value (DMSO/fragment) for probe 1 labeling ([1]; Q9GZV4_K47, 231 sol): 5.0
R value (DMSO/fragment) for probe 1 labeling ([2]; Q0VFZ6_K312, 231 sol): 20.0
SMILES: O=C(Oc1c(F)c(F)c(F)c(F)c1F)c1cc(C(F)(F)F)cc(C(F)(F)F)c1 [fragment 21, Pentafluorophenyl 3,5-bis(trifluoromethyl)benzoate]

IC50, inhibition of NUDT2 activity [3]: equivalent IC50 value
SMILES: COC(=O)NC(=NC(=O)OCC1c2ccccc2-c2ccccc21)n1cccn1 [fragment 49, N-Methoxycarbonyl-N′-9-fluorenylmethoxycarbonyl-pyrazole-1-carboxamidine]

SMILES: O=C(CC12CC3CC(CC(C3)C1)C2)Oc1ccc([N+](=O)[O-])cc1[N+](=O)[O-] [fragment 38, 2,4-Dinitrophenyl 2-(adamantan-1-yl)acetate]
isoTOP-ABPP ratio (R) at liganded lysine Q9GZV4_K47 ([1]; sol, 231): 1.8

SMILES: O=C(Oc1ccc([N+](=O)[O-])cc1[N+](=O)[O-])c1ccc2ccccc2n1 [fragment 35, 2,4-Dinitrophenyl quinoline-2-carboxylate]
isoTOP-ABPP ratio (R) at liganded lysine Q0VFZ6_K312 ([2]; sol, 231): 14.4

R value (DMSO/fragment) for probe 1 labeling ([4]; O43837_K207, 50 uM, 231 sol, in vitro): 6.5
SMILES: O=C(Oc1c(F)c(F)c(F)c(F)c1F)C(c1ccccc1)c1ccccc1 [fragment 20, Pentafluorophenyl 2,2-diphenylacetate]

isoTOP-ABPP ratio, lysine O43837_K207 ([4]; 100 uM_231_sol_in vitro): 3.1
SMILES: CC(C)(C)OC(=O)N=C(NC(=O)OC(C)(C)C)n1cccn1 [fragment 50, reference compound]

SMILES: N#Cc1ccc(C(=O)Oc2ccc([N+](=O)[O-])cc2[N+](=O)[O-])cc1 [fragment 44, 2,4-Dinitrophenyl 4-cyanobenzoate]
isoTOP-ABPP ratio, lysine Q9UKV3_K103 [5]: 1.0

SMILES: O=C(ON1C(=O)CCC1=O)c1cc(C(F)(F)F)cc(C(F)(F)F)c1 [fragment 46, 3,5-Bis(trifluoromethyl)benzoic acid NHS ester]
isoTOP-ABPP ratio, lysine Q9UKV3_K103 [5]: 16.6

SMILES: O=C(Oc1ccc([N+](=O)[O-])cc1[N+](=O)[O-])c1ccc(-c2ccccc2)cc1 [fragment 37, 2,4-Dinitrophenyl [1,1′-biphenyl]-4-carboxylate]
isoTOP-ABPP ratio (R) at liganded lysine P20248_K54 ([6]; sol, 231): 0.5

SMILES: COc1cc(CCC(=O)Oc2ccc([N+](=O)[O-])cc2[N+](=O)[O-])cc(OC)c1OC [fragment 33, 2,4-Dinitrophenyl 3-(3,4,5-trimethoxyphenyl)propanoate]
isoTOP-ABPP reactivity ratio at lysine P20248_K54 ([6]; 231 sol): 5.4
